We go through five compounds from patent US4064254A, “Substituted piperidines therapeutic process and compositions” (Mead Johnson & Company, priority 1976, dated 1977).

In assay [1] the test system is electrically induced arrhythmia in the dog. Description: electrically induced arrhythmia in the dog. The format is in vivo. Particulars: Canis lupus familiaris, iv.
Assay [2] relates to aconitine induced arrhythmia in the dog. Description: prevention of aconitine induced arrhythmia in the dog, intraduodenal administration. The note with it: Canis lupus familiaris, read-out: effective dose in the prevention of aconitine induced arrhythmia. The format is in vivo. The source says: (§1) The chest of an anesthetized dog is opened in the midline and the right and left atrial appendages exposed through small slits in the pericardium. Bypolar recording electrodes are affixed to the atrial surfaces and a 4 × 4 mm. piece of clean cloth is fixed to the surface of the right auricular appendage. Control recordings are made of various heart functions including femoral arterial blood pressure and right and left atrial electrograms. Atrial arrhythmia is then induced by placing 3-5 drops of a solution of aconitine on the cloth which is fixed to the right atrium. […] Throughout the experiment, fresh aconitine is (2-3 drops) placed on the cloth at 10 minute intervals.

The test system is the same in assay [3]. As to the kind of experiment: aconitine induced atrial arrhythmia in the anesthetized dog, intravenous. The format is in vivo. The note with it: Canis lupus familiaris, read-out: effective dose restoring normal cardiac rhythm, aconitine induced arrhythmia.
Description: as §1

Assay [4] has as its system chloroform induced arrhythmia in the mouse. Description: inhibition of chloroform induced arrhythmia in the mouse (Lawson). Type of assay: in vivo. Particulars: ip, intraperitoneal, read-out: ED50, prevention of chloroform induced arrhythmia. The source says:
Another in vivo test involves the inhibition of chloroform induced arrhythmia in the mouse according to the method of J. W. Lawson, J. Pharmacol. Exp. Therap., 160, 22 (1968).

For assay [5], the system named is rabbit atrium. Description: in vitro rabbit atrium test (refractory period). Particulars: Oryctolagus cuniculus; rabbit left atrium, 30° C., stimulated at 30 per minute; read-out: EC50 (50% of maximal increase in refractory period). The format is cell-based. The method, then: In this test, the left atrium is placed in Chenoweth's solution warmed to 30° C. and irrigated with 95% oxygen: 5% carbon dioxide. The lower end of the atrium is attached to a small hook fixed in the bath and the upper end is connected to a transducer to record contractile activity. […] A test compound is introduced into the bath and the test repeated after a 5 minute interval. A dose-response relationship is obtained by additional doses of the test compound. […] This value is designated the EC50.

Assay [6] deals with serotonin (rat uterus). Description: antiserotonin activity in the rat uterus (spasmogenic effect of serotonin). Type of assay: cell-based. Particulars: rat uterine horn, 30° C., 0.4 microgram per milliliter of serotonin; read-out: IC50 (decrease of spasmogenic effect of serotonin by 50%). The method, then: According to this test one of the uterine horns of a rat uterus is suspended in oxygenated salt solution at 30° C. The contractions of this tissue are then recorded and varying concentrations of the test compound introduced into the bath in order to determine the concentration that would decrease the spasmogenic effect of 0.4 microgram per milliliter of serotonin by 50%. This value is designated the IC50.

In assay [7] the test system is serotonin in the brain in mice. Description: antiserotonin activity in mice, 5-hydroxytryptophan / monoamine oxidase inhibitor (Corne). The format is in vivo. Particulars: Mus musculus. The text has this: This test is dependent on the metabolism of 5-hydroxytryptophan to serotonin in the brain in mice which are pretreated with a monamine oxidase inhibitor.

In brackets after ≈: the same amount, converted by molar mass.

Usually ED50 stands for the dose that gives a 50% effect, or the effect in half of the subjects. Broadly, the EC50 is the concentration that produces a half-maximal response. Consider `C=C[C@H]1C[N@@]2CC[C@H]1C[C@@H]2[C@@H](O)c1ccnc2ccc(OC)cc12` [quinidine, reference compound], for which the minimal effective dose in assay [1] was 14 mg/kg; in assay [2], > 14 mg/kg; in assay [3], 6 mg/kg. For the same compound, the ED50 in assay [4] is 83 mg/kg. For the same compound, in assay [5], the EC50 stood at 18 µg/mL (≈ 55.5 µM).

In general, IC50 refers to the concentration needed to halve the response being measured. Turning to `CCN(CC)C(=O)[C@@H]1C=C2c3cccc4[nH]cc(c34)C[C@H]2N(C)C1` [lysergide, reference compound], in assay [6], the IC50 was found to be 12 ng/mL (≈ 0.0371 µM).

On to `CN1CCCCC1CCc1ccccc1N` (centres unmarked) [2-(o-Aminophenethyl)-1-methylpiperidine, 2-(O-Aminophenethyl)-1-methylpiperidine], for which the EC50 in assay [5] was determined as 44 µg/mL (≈ 202 µM).

With `COc1ccc(C(=O)Nc2ccccc2CCC2CCCCN2C)cc1` (centres unmarked) [4-methoxy-2'-[2-(1-methyl-2-piperidyl)ethyl]benzanilide], the results for the minimal effective dose in assay [1], in assay [2] and in assay [3] were 1.9 mg/kg, < 10 mg/kg and 0.8 mg/kg, respectively. In assay [4], the ED50 was found to be 7.1 mg/kg. In assay [6], the IC50 was found to be 4.6 ng/mL (≈ 0.0131 µM). Further, in assay [5], the EC50 turned out to be 2.4 µg/mL (≈ 6.81 µM).

Regarding `CN1CCCCC1CCc1ccccc1NC(=O)C=Cc1ccccc1` (centres unmarked) [2'-[2-(1-Methyl-2-piperidyl)ethyl]-cinnamanilide], the ED50 in assay [7] (ip, 1 h, intraperitoneal, 60 minute pretreatment) was determined as 21 mg/kg; in assay [7] (sc, 0.5 h, subcutaneous, 30 minute pretreatment), 4.3 mg/kg; in assay [7] (sc, 1 h, subcutaneous, 60 minute pretreatment) it was 10 mg/kg. Also, the IC50 in assay [6] came to 1.85 ng/mL (≈ 0.00531 µM).
